Values quoted from earlier work, collected in patent US12161661B2, “Topical composition for destroying, in vivo, an external hyperplastic tissue, such as, but not limited to, a viral skin lesion, such as, but not limited to, a viral wart” (priority 2022, dated 2024).
Where two headings read alike, the source gives them in different places.

Legend:
plantar warts [1] = details: 10% solution
flat warts on the face [2] = details: after 2 months, 0.5 mg/kg. per day
warts [3] = test system: warts
warts [4] = test system: warts; remark: listed apart in the source
periungual warts = details: once in two weeks for 6 weeks, after fractional CO2 laser
[5] = test system: warts on the hands and feet; details: plus light source PDL
warts [6] = details: 1 of 30
flat warts on the face [7] = details: 0.7% cantharidin, over 16 weeks on average
[8] = test system: warts of the hands and legs; details: 5% cream once a day for 4 weeks, with occlusion
plantar warts [9] = details: 12 weeks; 19/20
warts [10] = test system: warts; remark: listed apart in the source
warts [11] = test system: warts; remark: listed apart in the source
[12] = test system: warts on the palms and soles
warts [13] = details: oral, within 3 months, children aged 2.5-12.5 years; 16/20
warts [14] = details: 80% solution every week for 6 weeks
[15] = 15-26% salicylic acid locally every day for 3 to 4 months

In the case of O=CCCCC=O [Glutaraldehyde], the “efficiency compared with salicylic acid” value (plantar warts [1]) is given as “equivalent to the solution of salicylic acid”, the effectiveness (resistant warts; 25 patients) is given as 72% and the tolerability (resistant warts; human, in vivo) is given as “well tolerated”.

For CC1=C(/C=C/C(C)=C/C=C/C(C)=C\C(=O)O)C(C)(C)CCC1 [isotretinoin], the effect (flat warts on the face [2]) is listed as 73%.

For bleomycin, the cure rate (wart; 0.1-1 mg injected into the wart, compared with cryotherapy) is listed as 92-97% and the “pain after injection, duration” value (wart; main side effect) is listed as “up to 48 hours”.

For CC(=O)C(=O)O [pyruvic acid], the “recovery, patients” value (warts [3]; in combination with 0.5% 5-FU) is given as 80% and the “recovery, patients” value (warts [3]; pyruvic acid alone) is given as 70%.

For Nc1ccn(C[C@@H](CO)OCP(=O)(O)O)c(=O)n1 [Cidofovir], the resolution of warts (warts [4]; average of 3.2 injections per course) is given as 98% and the side effects (warts [4]; in vivo) is given as “nephrotoxicity, neutropenia, and metabolic acidosis”.

In the case of COC(=O)CCC(=O)CN [MAL-PDT, methyl5-aminolaevuninic acid], the cure rate (periungual warts) is listed as 90% and the “resolution of treated warts” value [5] is listed as 53%.

In the case of CC1=C(/C=C/C(C)=C/C=C/C(C)=C/C(=O)O)C(C)(C)CCC1 [tretinoin], the “effect achieved, patients” value (warts [6]) is given as 3%.

In the case of C[C@@]12C(=O)OC(=O)[C@]1(C)[C@H]1CC[C@@H]2O1 [cantharidin], the cure (flat warts on the face [7]) is listed as “cure in all 15 patients”.

For O=c1[nH]cc(F)c(=O)[nH]1 [5-FU, Ftoruracil], the “warts cleared at the end of treatment” value [8] is listed as 60% and the “complete cure, patients” value (plantar warts [9]) is listed as 95%.

For O=C(O)c1ccccc1O [salicylic acid], the average cure rate (warts [10]; [15]) is given as 49%, the “cure rate, range” value (warts [10]; [15]) is given as 0-69% and the “effect of the salicylic acid (qualitative studies)” value (warts [10]; in vivo) is given as “low”.

In the case of CC(C)Cn1cnc2c(N)nc3ccccc3c21 [Imiquimod], the “curing, patients” value (warts [11]; 9.5 weeks, 50 patients of whom 19 had immunosuppression) is listed as 56% and the “patients with a 50% egression of warts” value (warts [11]; twice daily for up to 24 weeks) is listed as 76%.

For O=c1c(-c2ccccc2)c1-c1ccccc1 [DPC, Diphenylcyclopropenone], the “complete disappearance of warts” value ([12]; 48 patients treated with DPC) is given as 88%, the average processing time ([12]; human, in vivo) is given as 5 months and the recurrence ([12]; within 2 years) is given as “no recurrence was observed”.

In the case of CCOC(=O)/C=C(C)/C=C/C=C(C)/C=C/c1c(C)cc(OC)c(C)c1C [etretinate], the effect observed (warts [13]) is listed as 80%.

In the case of Oc1ccccc1 [phenol], the cure rate (warts [14]) is given as 83%.
